# From patent US11166924B2, “N-methyl-d-aspartate receptor allosteric modulators and methods for their use” (Qingdao Primedicine Pharmaceutical Company, Ltd., priority 2016, dated 2021)
# Key:
# [1] = target: T1, GluN2B NMDARs in hippocampal slices (Mus musculus, UniProt P35438+Q01097); assay: Slice recordings, GluN2B component of synaptic NMDAR currents; conditions: FIG. 18
# T1 construct: from tissue; host or cells: mouse hippocampal slices, CA1 pyramidal neurons
# Excerpt: (§1) 6-8 week old C57/Bl6 mice or rats underwent cervical dislocation followed by decapitation. The brain was immediately transferred to an ice cold NMDG-based cutting solution consisting of: (in mM): 120 NMDG, 2.5 KCl, 1.2 NaH2PO4, 25 NaHCO3, 1.0 CaCl2, 7.0 MgCl2, 2.4 Na-pyruvate, 1.3 Na-ascorbate, 20 D-glucose with pH adjusted to 7.35 using HCl acid (unless stated, all chemicals and drugs were purchased from Sigma or BioShop, Canada). The hippocampus was dissected out and transverse hippocampal slices (400 μm) were obtained using a manual tissue chopper (Stoelting, Wood Dale, Ill., USA). Slices recovered in a heated (30° C.) incubating chamber for 1 hr which contained ACSF composed of (in mM): 124 NaCl, 3 KCl, 1.25 NaH2PO4, 1 MgSO47H2O, 2 CaCl2), 26 NaHCO3 and 15 D-glucose which was bubbled continuously with carbogen (95% O2/5% CO2) (pH to 7.3). After 30 additional minutes at room temperature, slices were transferred to a submerged recording chamber and were perfused continuously with carbogenated ACSF (2-3 ml/min). Whole-cell recordings of CA1 pyramidal neurons were performed using the “blind” method with a MultiClamp 700B amplifier. EPSCs (excitatory post synaptic currents) were elicited by stimulating the SC pathway. For isolation of NMDAR currents, cells were voltage clamped at +40 mV. […]
# [2] = Pharmacokinetics after i.v. injection, CSF and serum by HPLC-ECD; type: in vivo, rat
# Description: Npam43 was isolated from the CSF and serum matrix using high performance liquid chromatography and quantified via electrochemical detection. The system consisted of an ESA 582 pump (Bedford, Mass.), a pulse damper (Scientific Systems Inc., State College, Pa.), a Rheodyne Inert manual injector (model 9125i, 20 μL injection loop; Rohnert Park, Calif.), a Tosoh Bioscience Super ODS TSK column (2 μm particle, 2 mm×10 mm; Montgomeryville, Pa.), and an Antec Leyden Intro Electrochemical detector with VT-03 flow cell with a Ag/AgCl reference electrode (Vapplied=+800 mV; Leyden, The Netherlands). The mobile phase was a 20 mM phosphate buffer-acetonitrile (80:20, v/v) mixture, pH 7.0, flowed through the system at 0.1 mL/min. The column was maintained at 40° C. throughout the analysis and the injection volume was 8 uL. Prior to use, the mobile was filtered through a […] membrane and degassed using a vacuum pump and maintained under helium purging during experimental testing. EZChrome Elite software (Scientific Software, Pleasanton, Calif.) was used to acquire and analyze chromatographic data.
# Samples were prepared by mixing aliquots (50:50) of the specimen with acetonitrile. The samples were mixed, allowed to rest at ambient temperature for 10 min and centrifuged at 5000 g for 5 min. Eight microliters of the supernatant was injected.
# CSF and serum samples generated from the in vivo studies were thawed, and 8 μl was transferred to individual Eppendorf tubes. The internal standard (IS) of 2 μl of 0.5 μg/ml Npam50 was then added, followed by 22 μl of acetonitrile, after which samples were vortexed for 5-10 s and centrifuged for 5 min at 20,000×g to sediment precipitated protein. […]
# An in-vivo pharmacological profile of Npam43 was evaluated using Sprague Dawley mature (˜300 g) rats. Npam43 was injected intravenously (i.v) at different doses ranging from 0.5-5 mg/kg and cerebrospinal fluid (CSF) and serum samples were extracted and analyzed using a high performance liquid chromatography electrochemical detection assay (HPLC-ECD). […]
# [3] = tested on: CREB phosphorylation (pCREB); assay: CREB phosphorylation (pCREB) immunoblotting in cortical neurons; type: cell-based, rat; conditions: presence or absence of ifenprodril; FIG. 15a
# Description: Dissociated cultures of rat cortical neurons were prepared from 18 day-old Sprague Dawley rat embryos as described previously. To obtain mixed cortical cultures enriched with neurons, uridine (10 μM) and 5-Fluor-2′-deoxyuridine (10 μM) were added to the culture medium at 3 days in vitro (DIV) and maintained for 48 h to inhibit non-neuronal cell proliferation before the cultures were returned to the normal culture medium. Mature neurons (11-14 DIV) were used for experiments. Mouse cortical cultures were prepared using embryos at 18 days post-coitum from litters resulting from heterozygote GluN2A+/− or GluN2B+/− matings. To obtain homozygous and wild-type (WT) littermate control neuronal cultures, cortical cells from individual embryos were plated separately. Genotyping was performed as described previously using tail samples collected from each embryo. To induce neuronal apoptosis, cortical cultures were stimulated with NMDA (50 μM) and glycine (10 μM) for 20 min, or STS (100 nM) for 1 h in Mg2+-free extracellular solution (ECS) containing the following (in mM): 25 HEPES acid, 140 NaCl, 33 glucose, 5.4 KCl, and 1.3 CaCl2, with pH 7.35 and osmolarity 320-330 mOsm. […]
# hippocampal slices (LTP) = assay: Long-term potentiation (LTP) in hippocampal slices; conditions: mouse hippocampal slices; FIG. 19
# Excerpt: as §1
# T1 sequence (Q01097 27-1482, other chains not shown): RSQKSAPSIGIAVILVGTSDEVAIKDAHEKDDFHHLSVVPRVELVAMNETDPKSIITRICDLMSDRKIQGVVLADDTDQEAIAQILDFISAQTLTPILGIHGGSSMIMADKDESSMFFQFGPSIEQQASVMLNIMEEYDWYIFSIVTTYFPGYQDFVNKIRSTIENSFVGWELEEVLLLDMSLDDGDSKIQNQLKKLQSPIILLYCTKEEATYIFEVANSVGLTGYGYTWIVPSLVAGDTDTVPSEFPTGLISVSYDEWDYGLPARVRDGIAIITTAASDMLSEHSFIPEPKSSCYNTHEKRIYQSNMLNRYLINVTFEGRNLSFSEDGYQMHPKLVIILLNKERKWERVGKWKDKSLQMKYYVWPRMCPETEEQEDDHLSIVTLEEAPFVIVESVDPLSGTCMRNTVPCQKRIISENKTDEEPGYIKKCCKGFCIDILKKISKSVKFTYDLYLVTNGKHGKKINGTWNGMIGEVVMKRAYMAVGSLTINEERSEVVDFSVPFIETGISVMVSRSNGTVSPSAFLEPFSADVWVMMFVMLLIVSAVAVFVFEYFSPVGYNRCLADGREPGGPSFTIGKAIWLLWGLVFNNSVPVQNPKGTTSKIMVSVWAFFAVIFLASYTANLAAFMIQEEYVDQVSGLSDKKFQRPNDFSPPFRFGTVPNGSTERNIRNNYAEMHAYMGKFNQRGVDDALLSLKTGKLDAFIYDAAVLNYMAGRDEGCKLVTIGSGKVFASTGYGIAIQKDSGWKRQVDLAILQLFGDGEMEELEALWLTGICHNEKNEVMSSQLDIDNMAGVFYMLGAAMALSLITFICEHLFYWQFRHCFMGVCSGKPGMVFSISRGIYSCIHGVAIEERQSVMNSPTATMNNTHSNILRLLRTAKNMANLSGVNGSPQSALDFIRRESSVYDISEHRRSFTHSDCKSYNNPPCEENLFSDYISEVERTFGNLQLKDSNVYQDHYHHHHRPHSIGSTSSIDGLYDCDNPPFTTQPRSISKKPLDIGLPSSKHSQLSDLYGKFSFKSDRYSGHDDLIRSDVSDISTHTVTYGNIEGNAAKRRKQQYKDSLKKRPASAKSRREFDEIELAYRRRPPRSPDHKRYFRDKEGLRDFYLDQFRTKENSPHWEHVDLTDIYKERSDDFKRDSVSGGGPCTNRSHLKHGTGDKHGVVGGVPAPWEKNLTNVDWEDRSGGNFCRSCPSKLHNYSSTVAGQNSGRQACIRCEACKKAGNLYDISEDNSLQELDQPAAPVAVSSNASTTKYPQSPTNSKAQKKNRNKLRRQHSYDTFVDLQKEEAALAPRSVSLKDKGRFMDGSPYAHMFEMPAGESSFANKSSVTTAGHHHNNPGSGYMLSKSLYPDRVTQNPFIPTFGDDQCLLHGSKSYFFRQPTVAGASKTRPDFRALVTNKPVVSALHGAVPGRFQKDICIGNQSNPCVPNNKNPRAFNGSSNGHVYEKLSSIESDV
smiles,measurement,setting,value
"CCOc1cc(Cl)c(Cl)c(/C=N/NC(=O)c2ccccc2Br)c1O [Npam43, (E)-2-bromo-N′-(2,3-dichloro-5-ethoxy-6-hydroxybenzylidene)benzohydrazide]",Effect on GluN2B NMDARs,[1],no effects on the GluN2B NMDARs
same,half-life,"[2]; Sprague-Dawley, rat, CSF, iv, rats, estimated",2.95 ± 0.6 h
same,Blood-brain-barrier penetration,"[2]; i.v. 0.5-5 mg/kg, Sprague Dawley rats",effective at penetrating the blood-brain-barrier (BBB)
same,Metabolic stability in the CSF and serum,"[2]; i.v., rats, FIG. 22",moderate metabolic stability
same,CREB phosphorylation (pCREB),[3],increases
same,Induction of LTP,hippocampal slices (LTP),can facilitate the induction of LTP
